According to article PMC6934184, “Selective DNA-PKcs inhibition extends the therapeutic index of localized radiotherapy and chemotherapy” (The Journal of Clinical Investigation, 2019):

Biological target: T1, FRK (PTK5) (Homo sapiens, UniProt P42685)
T1 construct: purchased Thermo Fisher Scientific (Life Technologies) SelectScreen
Assay: SelectScreen Z'LYTE
Format: biochemical
Outline: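 NU5455 was profiled across the SelectScreen Broad panel of kinase activity and binding assays. Z'LYTE reactions such as CSF1R ran at apparent Km ATP, while the Adapta CAMK1 assay used ATP listed as 10. Values are given as percent.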

T1 sequence (P42685 whole entry): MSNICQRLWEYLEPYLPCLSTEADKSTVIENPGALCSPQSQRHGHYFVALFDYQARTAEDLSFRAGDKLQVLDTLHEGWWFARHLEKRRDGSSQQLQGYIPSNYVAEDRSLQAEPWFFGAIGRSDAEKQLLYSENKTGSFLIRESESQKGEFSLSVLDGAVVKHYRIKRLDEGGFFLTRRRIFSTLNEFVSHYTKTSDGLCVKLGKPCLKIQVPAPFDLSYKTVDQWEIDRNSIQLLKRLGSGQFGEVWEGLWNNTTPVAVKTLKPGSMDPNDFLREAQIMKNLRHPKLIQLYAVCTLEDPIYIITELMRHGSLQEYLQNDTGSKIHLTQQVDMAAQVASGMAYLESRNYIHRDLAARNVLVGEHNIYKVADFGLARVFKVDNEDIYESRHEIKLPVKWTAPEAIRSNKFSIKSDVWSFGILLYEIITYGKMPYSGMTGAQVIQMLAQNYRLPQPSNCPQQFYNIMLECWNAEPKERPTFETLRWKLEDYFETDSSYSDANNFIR

## CN(C(=O)CN1CCOCC1)c1ccc2sc3c(-c4cccc5c(=O)cc(N6CC7CCC(C6)O7)oc45)cccc3c2c1 [NU5455]
  inhibition at 1 µM: 3.4%
